One data set is described as follows: in vivo. The note with it: male, Wistar-Hannover, rat, plasma, po, 12 mg/kg.
The next data set has as its system Caco-2 cells. To be noted: compound 30 μM on both sides, Rhodamine 123 10 μM, Bl-Ap direction, Caco-2 monolayers; read from FIG. 2.

Description for in vivo: Male, Wistar-Hannover rats (257-313 g) were used; animals were cannulated in the jugular vein for blood sampling. Animals were individually housed at 18-26° C. with 30-70% humidity. Animals were allowed free movement and access to water with 12 h dark and light cycles. Dosing was 2-4 h after the beginning of a light cycle and dosing time across each group was consistent. All animals had access to water, ad libitum, and were fasted 8 h prior to dosing; food was returned 5 h post-dose. Animals were dosed using a 1 mL syringe. Group 1, the intravenous group (raloxifene, 2.5 mg/kg), was dosed using an infusion rate of ˜0.3 mL per minute.
Sampling—using an AccuSampler®, blood samples (˜120 μL) were collected from 4 animals/group/time point from a catheter inserted into the jugular vein. Blood samples were taken and removed blood volume was replaced by an equivalent volume of intraperitoneal saline after each draw. Blood samples were centrifuged and plasma transferred into a designated well of a 96-well plate. Samples were kept frozen (−80±10° C.) until sample preparation and HPLC/MS/MS analysis.
Internal standard (IS) solution was prepared in a 500 mL volumetric flask containing 1:1 v/v acetonitrile:methanol and ˜0.04 μM of saquinavir base. Individually, the 96-well plates were removed from the freezer (−80±10° C.) and allowed to warm to ambient temperature (˜45-50 min). The in vivo plasma samples, either 25 or 50 μL, were transferred into separate 1.5 mL micro-centrifuge tubes. Total plasma volume was brought to ˜100 μL by adding male Wistar-Hannover plasma (potassium EDTA). Subsequently, 200 μL of IS solution was added, capped, mixed (˜5 sec) and centrifuged at 13,200 rpm for 10 mm using an Eppendorf minispin centrifuge. The supernatant (˜250 μL) was transferred into individual wells of a 96-well plate. The 96-well plate was sealed and centrifuged at 3000 rpm for 10 min at 10° C. […] The 96-well plate was then placed into the auto-sampler cool-stack (˜6° C.) and analyzed via LC/MS/MS. Raloxifene, and raloxifene glucuronide standard curves and quality control (QC's) samples were prepared in an analogous way as described above. […] The limit of detection (LOD) for raloxifene was ˜0.2 ng/mL while the glucuronides were ˜0.1 ng/mL.

As to `O=C(c1ccc(OCCN2CCCCC2)cc1)c1c(-c2ccc(O)cc2)sc2cc(O)ccc12` [raloxifene], in the data set “in vivo”, the AUC(0-t) stood at 452 ng·h/mL, the Cmax lay within 50 to 60 ng/mL, the Tmax is approximately 4 h and the bioavailability turned out to be 3.6 ± 0.8%.
Regarding “d-α-tocopheryl polyethylene glycol succinate [TPGS 1000]”, the “RHO in vitro efflux inhibition” value with Caco-2 cells is on record as approximately 40%.

As a reminder, the AUC(0-t) is exposure summed from dosing to a finite time, without extrapolation to infinity. As usually defined, the Cmax is the highest concentration seen after dosing. Broadly, the Tmax is the time at which the peak concentration occurs. One may read the bioavailability as dose-corrected exposure relative to a reference, in per cent. Low readings indicate little systemic uptake, high ones much systemic uptake.
